Experimental data from ChEMBL document CHEMBL4828717, “Synthetic cajaninstilbene acid derivatives eradicate methicillin-resistant Staphylococcus aureus persisters and biofilms” (Eur J Med Chem, 2021).
Activity calls are given as the source filed them. The rule behind the calls is not given here.

Columns and labels:
[1] = Cytotoxicity against mouse RAW264.7 cells assessed as cell viability at 10 ug/ml measured after 24 hrs by MTT assay; format: cell-based; details: RAW264.7 cells, at 10 µg/mL, read-out: Activity
Staphylococcus aureus [2] = experiment: Antibacterial activity against methicillin resistant Staphylococcus aureus ATCC515992 assessed as reduction in microbial growth after 16 to 18 hrs by microbroth dilution method; format: functional; details: time 16-18 hrs
Staphylococcus aureus [3] = experiment: Synergistic antimicrobial activity against Staphylococcus aureus ATCC 43300 assessed as FICI at 0.5 times MIC after 24 hrs in presence of 16 ug/ml gentamicin by checkerboard assay; format: functional
Staphylococcus aureus [4] = experiment: Antibacterial activity against methicillin resistant Staphylococcus aureus ATCC 52056 assessed as reduction in microbial growth after 16 to 18 hrs by microbroth dilution method; format: functional; details: time 16-18 hrs
Staphylococcus aureus [5] = experiment: Antibacterial activity against methicillin resistant Staphylococcus aureus ATCC 43300 assessed as reduction in microbial growth after 16 to 18 hrs by microbroth dilution method; format: functional; details: time 16-18 hrs
Cell membrane [6] = experiment: Induction of cell membrane damage in Staphylococcus aureus ATCC 43300 at 2 times MIC after 90 mins by confocal laser scanning microscopy analysis
Cell membrane [7] = experiment: Induction of cell membrane permeabilization in methicillin resistant Staphylococcus aureus ATCC 43300 assessed as fluorescence intensity at 2 times MIC measured after 30 mins by propidium iodide staining based fluorescence assay
Staphylococcus aureus [8] = experiment: Antibacterial activity against methicillin resistant Staphylococcus aureus ATCC 43300 persisters assessed as reduction in number of bacteria at 4 times MIC incubated for 4 hrs by colony counting method; format: functional, organism-based
Staphylococcus aureus [9] = experiment: Antibacterial activity against Staphylococcus aureus ATCC 25923 assessed as reduction in microbial growth after 16 to 18 hrs by microbroth dilution method; format: functional; details: time 16-18 hrs
Staphylococcus aureus [10] = experiment: Synergistic antimicrobial activity against Staphylococcus aureus ATCC 43300 assessed as FICI at 0.5 times MIC after 24 hrs in presence of 128 ug/ml kanamycin by checkerboard assay; format: functional
Staphylococcus aureus [11] = experiment: Synergistic antimicrobial activity against Staphylococcus aureus ATCC 43300 assessed as FICI at 0.5 times MIC after 24 hrs in presence of 64 ug/ml piperacillin by checkerboard assay; format: functional
Staphylococcus aureus [12] = experiment: Antibacterial activity against methicillin resistant Staphylococcus aureus ATCC513045 assessed as reduction in microbial growth after 16 to 18 hrs by microbroth dilution method; format: functional; details: time 16-18 hrs
[13] = Toxicity in BALB/c mouse infected with methicillin-resistant Staphylococcus aureus ATCC 43300 assessed as damage in lung at 50 to 200 mg/kg, sc administered every 24 hrs for 4 days by H&E staining based light microscopic analysis; format: organism-based; details: in vivo, dose 50-200 mg/kg
Cell membrane [14] = experiment: Induction of cell membrane depolarization in methicillin resistant Staphylococcus aureus ATCC 43300 measured after 60 mins by DiOC5 dye based flow analyzer
Cell membrane [15] = experiment: Induction of cell membrane depolarization in methicillin resistant Staphylococcus aureus ATCC 43300 measured up to 60 mins by DiOC5 dye based flow analyzer; details: time min <=60, TDE = time-dependent effect
Staphylococcus aureus [16] = experiment: Induction of morphological changes in Staphylococcus aureus ATCC 43300 assessed as membrane damage at 8 times MIC after 90 mins by TEM analysis; format: functional, organism-based
Pseudomonas aeruginosa = experiment: Antibacterial activity against Pseudomonas aeruginosa ATCC27853 assessed as reduction in microbial growth after 16 to 18 hrs by microbroth dilution method; format: functional; details: time 16-18 hrs
Escherichia coli = experiment: Antibacterial activity against Escherichia coli ATCC25922 assessed as reduction in microbial growth after 16 to 18 hrs by microbroth dilution method; format: functional; details: ATCC 25922, time 16-18 hrs
Cell membrane [17] = experiment: Induction of cell membrane damage in methicillin resistant Staphylococcus aureus ATCC 43300 assessed as increase in ATP leakage […] at 0.5 times MIC measured every 30 mins for 6 hrs by Bactiter-glo assay; format: subcellular
Cell membrane [18] = experiment: Induction of cell membrane damage in Staphylococcus aureus ATCC 43300 at 1 times MIC after 90 mins by confocal laser scanning microscopy analysis
Staphylococcus aureus [19] = experiment: Antibacterial activity against methicillin resistant Staphylococcus aureus ATCC48706 assessed as reduction in microbial growth after 16 to 18 hrs by microbroth dilution method; format: functional; details: time 16-18 hrs
Staphylococcus aureus [20] = experiment: Antibacterial activity against methicillin resistant Staphylococcus aureus ATCC49025 assessed as reduction in microbial growth after 16 to 18 hrs by microbroth dilution method; format: functional; details: time 16-18 hrs
L02 = experiment: Cytotoxicity against human L02 cells assessed as cell viability at 10 ug/ml measured after 24 hrs by MTT assay; format: cell-based; details: l02, 24 h, dose 10 µg/ml
Staphylococcus aureus [21] = experiment: Antimicrobial activity against methicillin-resistant Staphylococcus aureus ATCC 43300 infected in abscesses mouse model assessed as increase in mouse survival at 50 to 200 mg/kg, sc administered every 24 hrs for 4 days; format: functional, organism-based; details: dose 50-200 mg/kg
Staphylococcus aureus [22] = experiment: Synergistic antimicrobial activity against Staphylococcus aureus ATCC 43300 assessed as FICI at 0.25 times MIC after 24 hrs in presence of 128 ug/ml piperacillin by checkerboard assay; format: functional
Cell membrane [23] = experiment: Induction of cell membrane damage in methicillin resistant Staphylococcus aureus ATCC 43300 assessed as increase in ATP leakage […] at 1 times MIC measured every 30 mins for 6 hrs by Bactiter-glo assay
Staphylococcus aureus [24] = experiment: Synergistic antimicrobial activity against Staphylococcus aureus ATCC 43300 assessed as FICI at 1 times MIC after 24 hrs in presence of 8 ug/ml gentamicin by checkerboard assay; format: functional
Staphylococcus aureus [25] = experiment: Antibacterial activity against methicillin resistant Staphylococcus aureus ATCC49008 assessed as reduction in microbial growth after 16 to 18 hrs by microbroth dilution method; format: functional; details: time 16-18 hrs
Staphylococcus aureus [26] = experiment: Inhibition of biofilm formation in methicillin-resistant Staphylococcus aureus ATCC 43300 at 4 times MIC incubated for 24 hrs by crystal violet staining based microplate reader assay; format: functional
Staphylococcus aureus [27] = experiment: Antibacterial activity against methicillin resistant Staphylococcus aureus ATCC 43300 persisters assessed as reduction in colony formation at 8 ug/ml incubated for 2 hrs by colony counting method; format: functional, organism-based; details: dose 8.0 µg/ml
Staphylococcus aureus [28] = experiment: Synergistic antimicrobial activity against Staphylococcus aureus ATCC 43300 assessed as FICI at 1 times MIC after 24 hrs in presence of 32 ug/ml piperacillin by checkerboard assay; format: functional
Staphylococcus aureus [29] = experiment: Antibacterial activity against methicillin resistant Staphylococcus aureus ATCC 43300 persisters assessed as reduction in colony formation at 8 ug/ml incubated for 8 hrs by colony counting method; format: functional, organism-based; details: dose 8.0 µg/ml
Staphylococcus aureus [30] = experiment: Inhibition of biofilm formation in methicillin-resistant Staphylococcus aureus ATCC 43300 at 1 times MIC incubated for 24 hrs by crystal violet staining based microplate reader assay; format: functional
[31] = Toxicity in BALB/c mouse infected with methicillin-resistant Staphylococcus aureus ATCC 43300 assessed as damage in kidney at 50 to 200 mg/kg, sc administered every 24 hrs for 4 days by H&E staining based light microscopic analysis; format: organism-based; details: in vivo, dose 50-200 mg/kg

With CC(C)=CCc1c(OCCF)cc(/C=C/c2ccc(F)cc2)c(C(=O)O)c1O the viability at 24 h, 10 ug/ml [1] was over 60%, the MIC (Staphylococcus aureus [2]) was 4 µg/mL and the “fractional inhibitory concentration index (FICI)” value (Staphylococcus aureus [3]) was 1.125. For the same compound, the MIC (Staphylococcus aureus [4]) was 4 µg/mL, the MIC (Staphylococcus aureus [5]) was 4 µg/mL and the Activity (Cell membrane [6]) was “Active”. The Activity (Cell membrane [7]) was “Active”, the Activity (Staphylococcus aureus [8]) was “Active” and the MIC (Staphylococcus aureus [9]) was 2 µg/mL. The “fractional inhibitory concentration index (FICI)” value (Staphylococcus aureus [10]) was 1.125, the “fractional inhibitory concentration index (FICI)” value (Staphylococcus aureus [11]) was 0.25 and the MIC (Staphylococcus aureus [12]) was 4 µg/mL. The Activity [13] was “Non-Toxic”, the Activity (Cell membrane [14]) was “Dose-Dependent Effect” and the Activity (Cell membrane [15]) was “Tde”. The Activity (Staphylococcus aureus [16]) was “Active”, the MIC (Pseudomonas aeruginosa) was over 32 µg/mL and the MIC (Escherichia coli) was over 32 µg/mL. The Activity (Cell membrane [17]) was “Active”, the Activity (Cell membrane [18]) was “Active” and the MIC (Staphylococcus aureus [19]) was 4 µg/mL. For the same compound, the MIC (Staphylococcus aureus [20]) was 4 µg/mL, the Activity (L02) was “Toxic” and the Activity (Staphylococcus aureus [21]) was “Active”. For the same compound, the “fractional inhibitory concentration index (FICI)” value (Staphylococcus aureus [22]) was 0.3125, the Activity (Cell membrane [23]) was “Active” and the “fractional inhibitory concentration index (FICI)” value (Staphylococcus aureus [24]) was 0.75. The MIC (Staphylococcus aureus [25]) was 4 µg/mL, the “inhibition (INH)” value (Staphylococcus aureus [26]) was 90% and the Activity (Staphylococcus aureus [27]) was “Active”. The “fractional inhibitory concentration index (FICI)” value (Staphylococcus aureus [28]) was 0.315, the Activity (Staphylococcus aureus [29]) was “Active” and the “inhibition (INH)” value (Staphylococcus aureus [30]) was 50%. For the same compound, the Activity [31] was “Non-Toxic”.
